Measured values from US5817669A, “Compounds, processes for the preparation thereof and anti-tumor agents” (Dainippon Pharmaceutical Co., Ltd., priority 1994, dated 1998).
Counter-ions that a name gives are not always drawn. Like-named read-outs stand apart in the source and are kept apart here.

Tests used:
[1] = test system: tumor; settings: Cancer Research 52, 2818 (1992); cited from earlier work
[2] = test system: KB human nasopharynx cancer; assay: In vitro anti-tumor activity against KB human nasopharynx cancer (MTT); type: cell-based; settings: KB, 72 h, MTT, read-out: IC50
Summary of the method: (§1)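 500–2,000 cells per well were pre-cultured 20 h at 37° C, 5% CO2, then exposed to test compound for 72 h. MTT (5 mg/ml) was added for 4 h, supernatant removed and formazan dissolved in DMSO.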

[3] = test system: colon 26 murine tumor cells; assay: Tumor growth inhibition effect on colon 26 murine tumor cells implanted mice; type: in vivo, SLC: CDF1 mice; settings: Mus musculus, Colon 26, 504 h; ip, 3.13 mg/kg once a day, days 1-9; day 21 or 22; read-out: Tumor growth inhibition rate IR (%)
Summary of the method: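 CDF1 female mice (7–9 weeks, 7 per group) implanted intracutaneously in the abdomen with 2% brei of colon 26 cells. Compound given ip once daily from day 1 to day 9. Tumor weight estimated from diameters on day 21 or 22; IR % = [1 − (treated MTW/control MTW)] × 100.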

[4] = test system: WiDr human colorectal cancer; assay: In vitro anti-tumor activity against WiDr human colorectal cancer (MTT); type: cell-based; settings: 72 h, MTT, read-out: IC50
Summary of the method: as §1

[5] = test system: A427 human lung cancer; assay: In vitro anti-tumor activity against A-427 human lung cancer (MTT); type: cell-based; settings: A-427, 72 h, MTT, read-out: IC50
Summary of the method: as §1

[6] = test system: MKN45 human stomach cancer; assay: In vitro anti-tumor activity against MKN45 human stomach cancer (MTT); type: cell-based; settings: MKN-45, MKN45, 72 h, MTT, read-out: IC50
Summary of the method: as §1

[7] = test system: murine P388 lymphocytic leukemia cells; assay: Increases in life span of mice implanted with murine P388 lymphocytic leukemia cells; type: in vivo, SLC: BDF1 mice; settings: Mus musculus, P388, ip, 720 h, ip
[8] = Solubility
[9] = test system: HMV2 human melanoma; assay: In vitro anti-tumor activity against HMV-2 human melanoma (MTT); type: cell-based; settings: HMV-2, 72 h, MTT, read-out: IC50
Summary of the method: as §1

[10] = test system: murine P388 lymphocytic leukemia cells; assay: In vitro anti-tumor activity against murine P388 lymphocytic leukemia cells (MTT, 72 h); type: cell-based; settings: Mus musculus; murine P388 cells, 72 h, MTT; read-out: IC50 (50% proliferation inhibitory concentration)
Summary of the method: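 MTT assay, 72 h exposure; formazan dissolved in DMSO after centrifugation and supernatant removal. Absorbance read at 570 nm with 690 nm reference. IC50 (μg/ml) by least squares.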

[11] = Acute toxicity; settings: mouse, in vivo, mice, 14th day
Protocol: Solutions of test compounds in predetermined concentrations were administered (0.1 ml/10 g body weight) to female BALB/c CrSlc mice (5 to 10 animals per one group, 10 weeks old) respectively, and, thus, LD50 values were calculated from the mortalities of the mice on the 14th day after the administration.

[12] = test system: C33A human cervix cancer; assay: In vitro anti-tumor activity against C-33A human cervix cancer (MTT); type: cell-based; settings: C-33A, 72 h, MTT, read-out: IC50
Summary of the method: as §1

[13] = test system: AZ521 human stomach cancer; assay: In vitro anti-tumor activity against AZ-521 human stomach cancer (MTT); type: cell-based; settings: AZ-521, 72 h, MTT, read-out: IC50
Summary of the method: as §1

[14] = NCI criterion, read-out: Evaluation
[15] = days 1 and 5, in solution, read-out: ILS (%) (in solution)
[16] = days 1 and 5, in suspension, read-out: ILS (%) (in suspension)

For `NCC1CCN(c2c(F)cc3c(=O)c(C(=O)O)cn(C4CC4)c3c2F)C1` (stereo not shown) [Compound G], the “anti-tumor activity, in words” value [1] is given as “has anti-tumor activity”.
With `Cl.NC1CCN(c2ccc3c(=O)c(C(=O)O)cn(-c4nccs4)c3n2)C1` (stereo not shown) [Compound 3, 7-(3-amino-1-pyrrolidinyl)-1,4-dihydro-4-oxo-1-(2-thiazolyl)-1,8-naphthyridine-3-carboxylic acid hydrochloride] the IC50 [2] was 0.153 µg/mL, the inhibition in vivo at 3.13 mg/kg [3] was 77% and the IC50 [4] was 1.08 µg/mL. It also gave an IC50 [5] of 0.0588 µg/mL, an IC50 [6] of 0.364 µg/mL and an ILS at 1.56 mg/kg [7, 14] of 20 to 74%. The ILS at 3.13 mg/kg [7, 14] was over 75%, the ILS at 6.25 mg/kg [7, 14] was over 75% and the ILS at 12.5 mg/kg [7, 14] was over 75%. The ILS at 25 mg/kg [7, 14] was over 75%, the ILS at 1.56 mg/kg [7, 15] was 63% and the ILS at 3.13 mg/kg [7, 15] was 75%. For the same compound, the ILS at 3.13 mg/kg [7, 16] was 88%, the ILS at 6.25 mg/kg [7, 15] was 113% and the ILS at 12.5 mg/kg [7, 15] was 188%. The ILS at 12.5 mg/kg [7, 16] was 175%, the ILS at 25 mg/kg [7, 15] was over 275% and the solubility ([8]; water) was 8.3 mg/mL. It also gave an IC50 [9] of 0.21 µg/mL, an IC50 [10] of 0.0103 µg/mL and an LD50 at 336 h ([11]; Intraperitoneal administration (ip)) of 55.2 mg/kg. For the same compound, the LD50 at 336 h ([11]; Intravenous administration (iv)) was 119 mg/kg, the IC50 [12] was 0.184 µg/mL and the IC50 [13] was 0.181 µg/mL.
With `COC1CN(c2ccc3c(=O)c(C(=O)O)cn(-c4nccs4)c3n2)CC1N(C)C(=O)[C@H](C)N` (stereo partly drawn) [Compound 1-1-3, 7-[trans-3-(N-L-alanylmethylamino)-4-methoxy-1-pyrrolidinyl]-1,4-dihydro-4-oxo-1-(2-thiazolyl)-1,8-naphthyridine-3-carboxylic acid hydrochloride] the solubility ([8]; 0.1 m phosphate buffer, pH 7.2, aqueous buffer) was over 234 mg/mL, the “solubility relative to that of Compound 1-1 and 3” value ([8]; relative to Compound 1-1 and 3 (Z is hydrogen)) was at least 10 times and the solubility ([8]; water) was over 98.7 mg/mL.
